For test [1], the target named is anti-cotinine antibody (SEQ ID NO: 11/12, rabbit variable region with human IgG1 Fc DE mutation). Description: SPR binding of anti-cotinine antibody to ARM compounds, Biacore T200, 37° C. (Example 202). The settings on record: SPR Biacore T200, 37° C., pH 7.4, antibody SEQ ID NO: 11/12 captured on protein A; Kd in molar. In outline: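 Antibody captured on a protein A chip; ARM compounds injected at 100 μL/min (200 s association, 2000 s dissociation), 3-fold 5-point series from 200 nM, at 37 °C in HEPES pH 7.4 buffer with 0.005% P20 and 1% DMSO. Double-referenced sensorgrams fit 1:1 for kon, koff, Kd (koff/kon), residence time (1/koff); pKd averaged across runs.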

Test [2] concerns the target human alpha1 nicotinic acetylcholine (nACh) receptor (Homo sapiens, UniProt P02708). Description: Nicotinic acetylcholine receptor antagonism assay, IONFlux automated patch clamp (Example 203). The class given is cell-based. Particulars: for IC50: antagonism of ACh-stimulated human alpha1 nAChR current, patch clamp; for Emax at 100 µM: maximum percentage antagonism at maximum concentration tested 100 μM; for Emax at 10 µM: maximum percentage antagonism at maximum concentration tested 10 μM. In outline:
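Cells expressing human α1 nAChR were incubated with a compound dose response (top 10 μM or 100 μM), then stimulated with ACh (10 mM), and peak current was read by automated patch clamp. % inhibition was taken against ACh-alone control, corrected for vehicle and run-down, and fit non-linearly for IC50; runs were averaged.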

A value given as a limit tells only on which side of the number the result lay.

Here are results for eleven compounds from US12521393B2, “Cytotoxicity targeting chimeras for CCR2-expressing cells” (GLAXOSMITHKLINE INTELLECTUAL PROPERTY DEVELOPMENT LIMITED, priority 2021, dated 2026).

Chain of human alpha1 nicotinic acetylcholine (nACh) receptor (P02708 21-457): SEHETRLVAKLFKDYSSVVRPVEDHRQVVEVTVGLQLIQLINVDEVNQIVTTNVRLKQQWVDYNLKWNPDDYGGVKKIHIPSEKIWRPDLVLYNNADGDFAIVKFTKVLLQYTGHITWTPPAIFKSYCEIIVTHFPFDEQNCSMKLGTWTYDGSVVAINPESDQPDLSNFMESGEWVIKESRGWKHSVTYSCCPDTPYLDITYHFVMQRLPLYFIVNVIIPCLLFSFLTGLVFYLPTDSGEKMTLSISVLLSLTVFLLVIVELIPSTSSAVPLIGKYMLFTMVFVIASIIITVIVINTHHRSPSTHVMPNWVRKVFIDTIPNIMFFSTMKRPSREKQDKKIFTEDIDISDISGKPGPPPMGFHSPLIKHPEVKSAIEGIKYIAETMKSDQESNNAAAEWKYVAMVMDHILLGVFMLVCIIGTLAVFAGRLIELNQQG
Chain of human alpha1 nicotinic acetylcholine (nACh) receptor (P11230 24-501 partner): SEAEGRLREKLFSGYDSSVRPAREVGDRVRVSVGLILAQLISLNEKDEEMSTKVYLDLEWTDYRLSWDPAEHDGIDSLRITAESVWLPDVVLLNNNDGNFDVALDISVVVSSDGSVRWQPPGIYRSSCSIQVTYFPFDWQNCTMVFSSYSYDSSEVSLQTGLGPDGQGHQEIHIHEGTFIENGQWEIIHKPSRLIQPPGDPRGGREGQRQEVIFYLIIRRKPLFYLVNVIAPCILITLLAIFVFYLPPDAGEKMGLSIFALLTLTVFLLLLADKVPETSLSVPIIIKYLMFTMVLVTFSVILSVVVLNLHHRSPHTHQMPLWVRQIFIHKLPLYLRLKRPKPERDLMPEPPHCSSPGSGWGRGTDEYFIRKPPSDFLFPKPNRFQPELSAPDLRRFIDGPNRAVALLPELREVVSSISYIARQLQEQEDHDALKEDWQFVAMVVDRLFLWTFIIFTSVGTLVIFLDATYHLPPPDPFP
Chain of human alpha1 nicotinic acetylcholine (nACh) receptor (Q07001 22-517 partner): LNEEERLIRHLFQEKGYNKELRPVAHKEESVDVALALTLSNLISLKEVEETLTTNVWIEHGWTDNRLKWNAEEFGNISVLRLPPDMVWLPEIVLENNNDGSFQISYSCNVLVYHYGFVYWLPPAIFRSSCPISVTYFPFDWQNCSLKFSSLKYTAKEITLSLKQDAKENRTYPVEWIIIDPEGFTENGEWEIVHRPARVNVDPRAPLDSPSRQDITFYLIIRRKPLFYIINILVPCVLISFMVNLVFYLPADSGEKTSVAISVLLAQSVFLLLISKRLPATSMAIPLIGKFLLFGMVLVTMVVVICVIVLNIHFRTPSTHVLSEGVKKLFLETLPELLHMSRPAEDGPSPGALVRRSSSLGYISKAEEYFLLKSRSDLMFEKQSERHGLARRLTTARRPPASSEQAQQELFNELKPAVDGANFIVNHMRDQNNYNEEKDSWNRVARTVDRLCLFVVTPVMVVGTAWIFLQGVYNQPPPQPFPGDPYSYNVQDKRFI

For `CC(C)N(C)[C@@H]1CC[C@H](N2CC[C@H](Nc3ncnc4ccc(C(F)(F)F)cc34)C2=O)[C@H](NC(=O)[C@H]2CC[C@@H](NC(=O)CCOCCOCCOCCNC(=O)[C@H]3CC(=O)N(C)[C@@H]3c3cccnc3)CC2)C1` [Example 28, (2S,3S)-N-(2-(2-(2-(3-(((1S,4s)-4-(((1R,2S,5R)-5-(Isopropyl(methyl)amino)-2-((S)-2-oxo-3-((6-(trifluoromethyl)quinazolin-4-yl)amino)pyrrolidin-1-yl)cyclohexyl)carbamoyl)cyclohexyl)amino)-3-oxopropoxy)ethoxy)ethoxy)ethyl)-1-methyl-5-oxo-2-(pyridin-3-yl)pyrrolidine-3-carboxamide], in test [1], the “pKd of Antibody for ARM Compound of Formula (I)” value (from here on “pKd of Antibody”) came to 9.273. In test [2], this compound showed an IC50 of 40.9 µM. Further, the Emax at 100 µM in test [2] (read-out: Maximum Response) came to 69.9%.

With `CC(C)N(C)[C@@H]1CC[C@H](N2CC[C@H](Nc3ncnc4ccc(C(F)(F)F)cc34)C2=O)[C@H](NC(=O)[C@H]2CC[C@H](NC(=O)CCOCCOCCOCCNC(=O)[C@H]3CC(=O)N(C)[C@@H]3c3cccnc3)CC2)C1` [Example 30, (2S,3S)-N-(2-(2-(2-(3-(((1R,4r)-4-(((1R,2S,5R)-5-(Isopropyl(methyl)amino)-2-((S)-2-oxo-3-((6-(trifluoromethyl)quinazolin-4-yl)amino)pyrrolidin-1-yl)cyclohexyl)carbamoyl)cyclohexyl)amino)-3-oxopropoxy)ethoxy)ethoxy)ethyl)-1-methyl-5-oxo-2-(pyridin-3-yl)pyrrolidine-3-carboxamide], the “pKd of Antibody” value in test [1] stood at 9.3155. The compound also gave a half-maximal inhibitory concentration (IC50) in test [2] of at least 10 µM. In addition, the Emax at 10 µM in test [2] (read-out: Maximum Response) was 5.4%.

For the compound `CCN1C(=O)C[C@H](C(=O)NCCOCCOCCOCCC(=O)N[C@H]2CC[C@@H](C(=O)N[C@@H]3C[C@H](N(C)C(C)C)CC[C@@H]3N3CC[C@H](Nc4ncnc5ccc(C(F)(F)F)cc45)C3=O)CC2)[C@H]1c1cccnc1` [Example 34, (2S,3S)-1-ethyl-N-(2-(2-(2-(3-((cis-4-(((1R,2S,5R)-5-(isopropyl(methyl)amino)-2-((S)-2-oxo-3-((6-(trifluoromethyl)quinazolin-4-yl)amino)pyrrolidin-1-yl)cyclohexyl)carbamoyl)cyclohexyl)amino)-3-oxopropoxy)ethoxy)ethoxy)ethyl)-5-oxo-2-(pyridin-3-yl)pyrrolidine-3-carboxamide], the “pKd of Antibody” value in test [1] stood at 9.933. The compound also returned an IC50 in test [2] of 28.5 µM. Further, the Emax at 100 µM in test [2] (read-out: Maximum Response) was 79.2%.

As for `CCN1C(=O)C[C@H](C(=O)NCCOCCOCCOCCC(=O)N[C@H]2CC[C@@H](C(=O)N[C@@H]3C[C@H](NC(C)(C)C)CC[C@@H]3N3CC[C@H](Nc4ncnc5ccc(C(F)(F)F)cc45)C3=O)CC2)[C@H]1c1cccnc1` [Example 35, (2S,3S)-N-(2-(2-(2-(3-(((1S,4s)-4-(((1R,2S,5R)-5-(tert-butylamino)-2-((S)-2-oxo-3-((6-(trifluoromethyl)quinazolin-4-yl)amino)pyrrolidin-1-yl)cyclohexyl)carbamoyl)cyclohexyl)amino)-3-oxopropoxy)ethoxy)ethoxy)ethyl)-1-ethyl-5-oxo-2-(pyridin-3-yl)pyrrolidine-3-carboxamide], the “pKd of Antibody” value in test [1] amounted to 9.785. In test [2], this compound registered an IC50 of 89.2 µM. The Emax at 100 µM in test [2] (read-out: Maximum Response) was 52.3%.

On to `CC(C)N(C)[C@@H]1CC[C@H](N2CC[C@H](Nc3ncnc4ccc(C(F)(F)F)cc34)C2=O)[C@H](NC(=O)C2CCC(NC(=O)CCOCCNC(=O)CCOCCNC(=O)[C@H]3CC(=O)N(C)[C@@H]3c3cccnc3)CC2)C1` (stereo partly drawn) [Example 48, (2S,3S)-N-(2-(3-((2-(3-(((1R,4r)-4-(((1R,2S,5R)-5-(Isopropyl(methyl)amino)-2-((S)-2-oxo-3-((6-(trifluoromethyl)quinazolin-4-yl)amino)pyrrolidin-1-yl)cyclohexyl)carbamoyl)cyclohexyl)amino)-3-oxopropoxy)ethyl)amino)-3-oxopropoxy)ethyl)-1-methyl-5-oxo-2-(pyridin-3-yl)pyrrolidine-3-carboxamide], for which the “pKd of Antibody” value in test [1] worked out at 8.975. In test [2], this compound registered an IC50 of 31.8 µM. Also, the Emax at 100 µM in test [2] (read-out: Maximum Response) was 77%.

As for `CC(C)N(C)[C@@H]1CC[C@H](N2CC[C@H](Nc3ncnc4ccc(C(F)(F)F)cc34)C2=O)[C@H](NC(=O)[C@H]2C[C@@H](NC(=O)CCOCCOCCNC(=O)CCNC(=O)[C@H]3CC(=O)N(C)[C@@H]3c3cccnc3)C2)C1` [Example 49, (2S,3S)-N-(3-((2-(2-(3-(((1S,3s)-3-(((1R,2S,5R)-5-(Isopropyl(methyl)amino)-2-((S)-2-oxo-3-((6-(trifluoromethyl)quinazolin-4-yl)amino)pyrrolidin-1-yl)cyclohexyl)carbamoyl)cyclobutyl)amino)-3-oxopropoxy)ethoxy)ethyl)amino)-3-oxopropyl)-1-methyl-5-oxo-2-(pyridin-3-yl)pyrrolidine-3-carboxamide], in test [1], the “pKd of Antibody” value turned out to be 9.191. The IC50 in test [2] was 80.3 µM. Besides, the Emax at 100 µM in test [2] (read-out: Maximum Response) came out at 56.7%.

For `CC(C)N(C)[C@@H]1CC[C@H](N2CC[C@H](Nc3ncnc4ccc(C(F)(F)F)cc34)C2=O)[C@H](NC(=O)[C@H]2CC[C@@H](NC(=O)CCCO[C@H]3CC[C@H](NC(=O)CCNC(=O)[C@@H]4CC(=O)N(C)[C@H]4c4cccnc4)CC3)CC2)C1` [Example 52, (2S,3S)-N-(3-(((1R,4S)-4-(4-(((1S,4S)-4-(((1R,2S,5R)-5-(Isopropyl(methyl)amino)-2-((S)-2-oxo-3-((6-(trifluoromethyl)quinazolin-4-yl)amino)pyrrolidin-1-yl)cyclohexyl)carbamoyl)cyclohexyl)amino)-4-oxobutoxy)cyclohexyl)amino)-3-oxopropyl)-1-methyl-5-oxo-2-(pyridin-3-yl)pyrrolidine-3-carboxamide], in test [1], the “pKd of Antibody” value was determined as 9.2545. Also, the IC50 in test [2] was found to be 33.3 µM. The Emax at 33.33 µM in test [2] (maximum percentage antagonism at maximum concentration tested 33.33 μM, read-out: Maximum Response) came to 8.3%.

In the case of `CC(C)N(C)[C@@H]1CC[C@H](N2CC[C@H](Nc3ncnc4ccc(C(F)(F)F)cc34)C2=O)[C@H](NC(=O)[C@H]2CC[C@H](NC(=O)CCOC[C@H]3CC[C@H](COCCNC(=O)[C@H]4CC(=O)N(C)[C@@H]4c4cccnc4)CC3)CC2)C1` [Example 53, (2S,3S)-N-(2-(((1R,4S)-4-((3-(((1R,4R)-4-(((1R,2S,5R)-5-(Isopropyl(methyl)amino)-2-((S)-2-oxo-3-((6-(trifluoromethyl)quinazolin-4-yl)amino)pyrrolidin-1-yl)cyclohexyl)carbamoyl)cyclohexyl)amino)-3-oxopropoxy)methyl)cyclohexyl)methoxy)ethyl)-1-methyl-5-oxo-2-(pyridin-3-yl)pyrrolidine-3-carboxamide], the “pKd of Antibody” value in test [1] amounted to 9.531. The IC50 in test [2] was at least 11.1 µM. Further, the Emax at 11.11 µM in test [2] (maximum percentage antagonism at maximum concentration tested 11.11 μM, read-out: Maximum Response) amounted to 10%.

With `CC(C)N(C)[C@@H]1CC[C@H](N2CC[C@H](Nc3ncnc4ccc(C(F)(F)F)cc34)C2=O)[C@H](NC(=O)[C@H]2CC[C@H](NC(=O)CCCOC[C@H]3CC[C@@H](COCCNC(=O)[C@H]4CC(=O)N(C)[C@@H]4c4cccnc4)CC3)CC2)C1` [Example 57, (2S,3S)-N-(2-(((1S,4R)-4-((4-(((1R,4R)-4-(((1R,2S,5R)-5-(Isopropyl(methyl)amino)-2-((S)-2-oxo-3-((6-(trifluoromethyl)quinazolin-4-yl)amino)pyrrolidin-1-yl)cyclohexyl)carbamoyl)cyclohexyl)amino)-4-oxobutoxy)methyl)cyclohexyl)methoxy)ethyl)-1-methyl-5-oxo-2-(pyridin-3-yl)pyrrolidine-3-carboxamide], in test [1], the “pKd of Antibody” value is recorded as 9.685. Further, in test [2], the IC50 was at least 30 µM. Moreover, the Emax at 30 µM in test [2] (maximum percentage antagonism at maximum concentration tested 30 μM, read-out: Maximum Response) came out at 47.6%.

As to `CC(C)N(C)[C@@H]1CC[C@H](N2CC[C@H](Nc3ncnc4ccc(C(F)(F)F)cc34)C2=O)[C@H](NC(=O)[C@H]2CC[C@@H](CC(=O)CCCOC[C@H]3CC[C@H](COCCNC(=O)[C@H]4CC(=O)N(C)[C@@H]4c4cccnc4)CC3)CC2)C1` [Example 60, (2S,3S)-N-(2-(((1R,4S)-4-(((5-((1S,4S)-4-(((1R,2S,5R)-5-(Isopropyl(methyl)amino)-2-((S)-2-oxo-3-((6-(trifluoromethyl)quinazolin-4-yl)amino)pyrrolidin-1-yl)cyclohexyl)carbamoyl)cyclohexyl)-4-oxopentyl)oxy)methyl)cyclohexyl)methoxy)ethyl)-1-methyl-5-oxo-2-(pyridin-3-yl)pyrrolidine-3-carboxamide], the “pKd of Antibody” value in test [1] is 9.4635. This compound also returned an IC50 in test [2] of at least 10 µM. Moreover, the Emax at 10 µM in test [2] (read-out: Maximum Response) worked out at 18.2%.

For `CC(C)N(C)[C@@H]1CC[C@H](N2CC[C@H](Nc3ncnc4ccc(C(F)(F)F)cc34)C2=O)[C@H](NC(=O)CCNC(=O)CCCOC[C@H]2CC[C@@H](COCCNC(=O)[C@H]3CC(=O)N(C)[C@@H]3c3cccnc3)CC2)C1` [Example 62, (2S,3S)-N-(2-(((1S,4R)-4-((4-((3-(((1R,2S,5R)-5-(Isopropyl(methyl)amino)-2-((S)-2-oxo-3-((6-(trifluoromethyl)quinazolin-4-yl)amino)pyrrrolidin-1-yl)cyclohexyl)amino)-3-oxopropyl)amino)-4-oxobutoxy)methyl)cyclohexyl)methoxy)ethyl)-1-methyl-5-oxo-2-(pyridin-3-yl)pyrrolidine-3-carboxamide], in test [1], the “pKd of Antibody” value amounted to 9.6305. In addition, the IC50 in test [2] was found to be 29 µM. In addition, the Emax at 100 µM in test [2] (read-out: Maximum Response) was 67.9%.
